Data reported in ChEMBL document CHEMBL1201862, “PubChem BioAssay data set” (2004).
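Compound exposure: 48 hours, 5 concentrations, 96-well plates. The concentration for 50% growth inhibition is given as GI50.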 The source made the active and inactive calls. Rule as the data show it: active = GI50 up to about 1.1 µM and inactive = higher.

Tests used:
Assay in all cases: NCI anticancer screen, dose series, 48 h
786-0 = test system: 786-0
CCRF-CEM = test system: CCRF-CEM
COLO 205 = test system: COLO 205
EKVX = test system: EKVX
HOP-62 = test system: HOP-62
HT-29 = test system: HT-29
K562 = test system: K562
M14 = test system: M14
MDA-MB-231 = test system: MDA-MB-231
MOLT-4 = test system: MOLT-4
NCI-H23 = test system: NCI-H23
NCI-H522 = test system: NCI-H522
OVCAR-8 = test system: OVCAR-8
RPMI-8226 = test system: RPMI-8226
RXF 393 = test system: RXF 393
SF-295 = test system: SF-295
SK-MEL-28 = test system: SK-MEL-28
SN12C = test system: SN12C
SW-620 = test system: SW-620
UO-31 = test system: UO-31

Measured: GI50

COC1(OC)N=C(N)C2(C#N)C(C)CC(=O)N(N(C)C)C12C#N (stereo not given)
inactive: 786-0 > 100 µM | CCRF-CEM > 100 µM | COLO 205 > 100 µM | EKVX > 100 µM | HOP-62 > 100 µM | HT-29 > 100 µM | K562 > 100 µM | M14 > 100 µM | MDA-MB-231 > 100 µM | MOLT-4 > 100 µM | NCI-H23 > 100 µM | NCI-H522 > 100 µM | OVCAR-8 > 100 µM | RPMI-8226 > 100 µM | RXF 393 > 100 µM | SF-295 > 100 µM | SK-MEL-28 > 100 µM | SN12C > 100 µM | SW-620 > 100 µM | UO-31 > 100 µM

Nc1nc(O)nc2snnc12
inactive: 786-0 6.38 µM | CCRF-CEM 14.9 µM | COLO 205 > 100 µM | EKVX > 100 µM | HOP-62 8.07 µM | HT-29 > 100 µM | K562 7.26 µM | M14 7.35 µM | MDA-MB-231 7.13 µM | MOLT-4 7.6 µM | NCI-H23 > 100 µM | NCI-H522 > 100 µM | OVCAR-8 5.71 µM | RPMI-8226 5.7 µM | RXF 393 4.66 µM | SF-295 33.2 µM | SK-MEL-28 6.27 µM | SN12C > 27.4 µM | SW-620 5.4 µM | UO-31 3.99 µM

COc1ccc([S+]([O-])Cc2cc(OC)c(OC)c(OC)c2)cc1 (stereo not given)
inactive: 786-0 > 100 µM | CCRF-CEM 41.3 µM | COLO 205 52.8 µM | EKVX > 100 µM | HOP-62 45.5 µM | HT-29 31.3 µM | K562 14.7 µM | M14 35.2 µM | MDA-MB-231 84.5 µM | MOLT-4 27 µM | NCI-H23 76.2 µM | NCI-H522 51.3 µM | OVCAR-8 62.5 µM | RPMI-8226 42.2 µM | RXF 393 29.2 µM | SF-295 47.3 µM | SK-MEL-28 95.3 µM | SN12C 54.8 µM | SW-620 30.3 µM | UO-31 > 100 µM

O=C1NC(=S)NC(=O)C1C(c1ccc(Cl)cc1)C1C(=O)NC(=S)NC1=O.c1ccncc1
inactive: 786-0 > 100 µM | CCRF-CEM > 100 µM | COLO 205 > 100 µM | EKVX 86.1 µM | HOP-62 > 100 µM | HT-29 > 100 µM | K562 > 100 µM | M14 > 100 µM | MDA-MB-231 > 100 µM | MOLT-4 > 100 µM | NCI-H23 > 100 µM | NCI-H522 > 100 µM | OVCAR-8 > 100 µM | RPMI-8226 > 100 µM | RXF 393 > 100 µM | SF-295 > 100 µM | SK-MEL-28 > 100 µM | SN12C > 100 µM | SW-620 > 100 µM | UO-31 > 100 µM

CC(C)(C)OC(=O)NCCCCC(NC(=O)c1ccccc1)C(N)=O (stereo not given)
inactive: 786-0 > 100 µM | CCRF-CEM > 100 µM | COLO 205 > 100 µM | EKVX > 100 µM | HOP-62 > 100 µM | HT-29 > 100 µM | K562 54.7 µM | M14 > 100 µM | MDA-MB-231 > 100 µM | MOLT-4 46.6 µM | NCI-H23 > 100 µM | NCI-H522 > 100 µM | OVCAR-8 > 100 µM | RPMI-8226 > 100 µM | RXF 393 > 100 µM | SF-295 > 100 µM | SK-MEL-28 > 100 µM | SN12C > 100 µM | SW-620 > 100 µM | UO-31 > 100 µM
